Values quoted from earlier work, collected in patent US6683112B2, “Gabapentin prodrugs and formulations” (Andrx Corporation, priority 2000, dated 2004).

Columns and labels:
[1] = in water and in both basic and acidic conditions

In the case of NCC1(CC(=O)O)CCCCC1 [Gabapentin, 1-(aminomethyl)cyclohexaneacetic acid], the metabolism (in humans) is given as “not extensively metabolized”, the route of elimination (in humans) is given as “eliminated via renal excretion essentially unchanged” and the oral bioavailability (typical dosage range 300-600 mgs T.I.D.) is given as “approximately sixty”. The elimination half life (unaltered by dose or following multiple dosing) was “five to seven” and the solubility [1] was “highly soluble”.
